Measurements reported in ChEMBL document CHEMBL1157493, “Synthesis and screening of small molecule inhibitors of anthrax edema factor” (Bioorg Med Chem Lett, 2008).

Target: T1, Calmodulin-sensitive adenylate cyclase (Bacillus anthracis, UniProt P40136)
T1 sequence (P40136 whole entry): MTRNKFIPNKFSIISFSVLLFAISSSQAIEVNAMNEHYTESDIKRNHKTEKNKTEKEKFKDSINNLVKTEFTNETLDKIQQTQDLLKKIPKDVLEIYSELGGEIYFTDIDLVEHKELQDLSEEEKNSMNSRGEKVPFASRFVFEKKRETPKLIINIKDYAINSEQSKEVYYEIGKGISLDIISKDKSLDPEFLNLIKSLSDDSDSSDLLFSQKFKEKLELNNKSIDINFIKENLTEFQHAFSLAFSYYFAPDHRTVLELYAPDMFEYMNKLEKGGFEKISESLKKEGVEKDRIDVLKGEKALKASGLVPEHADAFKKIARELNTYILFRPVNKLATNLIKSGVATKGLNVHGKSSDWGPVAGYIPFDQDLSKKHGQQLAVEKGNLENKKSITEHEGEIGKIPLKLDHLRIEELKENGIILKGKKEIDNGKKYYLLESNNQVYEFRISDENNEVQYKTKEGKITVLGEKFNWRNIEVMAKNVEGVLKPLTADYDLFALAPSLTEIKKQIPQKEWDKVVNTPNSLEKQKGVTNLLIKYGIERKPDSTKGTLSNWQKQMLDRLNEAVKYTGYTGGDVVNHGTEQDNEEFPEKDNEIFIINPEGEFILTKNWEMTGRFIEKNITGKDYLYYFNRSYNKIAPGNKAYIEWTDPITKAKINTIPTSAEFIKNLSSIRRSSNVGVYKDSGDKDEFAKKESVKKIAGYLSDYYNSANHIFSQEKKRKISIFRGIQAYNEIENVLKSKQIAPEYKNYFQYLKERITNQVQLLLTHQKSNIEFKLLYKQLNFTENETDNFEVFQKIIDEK
Assay: Inhibition of Bacillus anthracis edema factor-induced edema in RAW264.7 mouse macrophages by cAMP-specific ELISA
Format: cell-based

| SMILES | IC50 |
| --- | --- |
| O=C1C=C(c2ccc3ncccc3c2)CCC1 | > 100 µM |
| O=C1C=C(c2cccs2)CCC1 | > 100 µM |
| Cn1cc(C2=CC(=O)CCC2)cn1 | > 100 µM |
| O=C1C=C(c2cccnc2)CCC1 | > 100 µM |
| O=C1C=C(c2ccsc2)CCC1 | > 100 µM |
| COc1cccc(C2=CC(=O)CCC2)n1 | > 100 µM |
| O=C1C=C(c2ccoc2)CCC1 | > 100 µM |
| O=C1C=C(c2cccc3c2oc2ccccc23)CCC1 | > 100 µM |
| O=C1C=C(c2cccc(O)c2)CCC1 | > 100 µM |
| O=C1C=C(c2ccccc2)CCC1 | > 100 µM |
| CC1(C)CC(=O)C=C(c2ccc3[nH]ccc3c2)C1 | > 100 µM |
| O=C1C=C(c2nccs2)CCC1 | > 100 µM |
| CC1(C)CC(=O)C=C(c2cccc3c2oc2ccccc23)C1 | > 100 µM |
